Assay type in all cases: cell-based
The target of one experiment is T1, TLR7 (Homo sapiens, UniProt Q9NYK1).
T1 construct: Fresh blood was collected from normal human donors; endogenous in cells; host or cells: human PBMCs from fresh donor blood
T1 sequence (Q9NYK1 27-1049): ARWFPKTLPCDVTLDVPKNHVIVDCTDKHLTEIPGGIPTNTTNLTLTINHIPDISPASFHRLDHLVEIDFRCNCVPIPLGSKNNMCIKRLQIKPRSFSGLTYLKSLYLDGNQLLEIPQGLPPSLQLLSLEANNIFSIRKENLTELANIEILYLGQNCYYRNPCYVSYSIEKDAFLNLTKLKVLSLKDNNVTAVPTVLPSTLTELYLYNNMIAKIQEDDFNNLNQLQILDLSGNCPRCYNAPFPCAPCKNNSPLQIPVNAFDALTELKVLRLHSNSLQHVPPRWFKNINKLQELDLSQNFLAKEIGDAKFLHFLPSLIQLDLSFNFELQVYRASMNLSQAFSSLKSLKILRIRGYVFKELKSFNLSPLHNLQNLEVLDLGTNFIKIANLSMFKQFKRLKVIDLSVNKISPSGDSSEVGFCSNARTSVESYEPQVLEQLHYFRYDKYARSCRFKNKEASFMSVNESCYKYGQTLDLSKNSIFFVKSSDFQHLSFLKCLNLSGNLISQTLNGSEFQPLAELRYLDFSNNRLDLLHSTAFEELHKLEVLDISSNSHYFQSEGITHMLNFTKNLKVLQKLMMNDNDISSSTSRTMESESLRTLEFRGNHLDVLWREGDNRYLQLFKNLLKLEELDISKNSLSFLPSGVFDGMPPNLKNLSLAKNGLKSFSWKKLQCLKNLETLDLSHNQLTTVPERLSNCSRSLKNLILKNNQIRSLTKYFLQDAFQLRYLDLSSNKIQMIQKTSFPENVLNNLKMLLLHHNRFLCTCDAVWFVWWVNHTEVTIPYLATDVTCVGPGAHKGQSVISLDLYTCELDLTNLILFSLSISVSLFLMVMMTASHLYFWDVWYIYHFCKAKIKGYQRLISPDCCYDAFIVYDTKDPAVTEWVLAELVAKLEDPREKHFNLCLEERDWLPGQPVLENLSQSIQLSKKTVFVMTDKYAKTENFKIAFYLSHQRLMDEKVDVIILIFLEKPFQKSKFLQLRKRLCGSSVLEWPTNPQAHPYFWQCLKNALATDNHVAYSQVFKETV
Nature of the experiment: huPBMC TLR7 Antagonist IFNα Assay. The settings on record: human PBMCs stimulated with ssRNA40 10 μg/mL (DOTAP), 14-16 hrs; IFNα2b AlphaLISA read-out. As to the method: (§1) Compounds were generally serially diluted (1/3) in DMSO and plated on sterile 384 well tissue culture plates and stored until ready for use. Each ten-point dilution was typically plated in triplicate in parallel rows.
(§2) Fresh blood was collected from normal human donors underwritten informed consent in heparinized syringes on the morning of the assay. The blood was diluted in RPMI-1640 medium and the white blood cells were separated from red blood cells by centrifugation (800 g 15′ 0 acceleration, 0 brake) on a Ficoll cushion. Peripheral blood mononuclear cells (PBMCs) were separated from platelets by a series of low-speed centrifugations (1000RPM 10′) in PBS+5% HI—FBS and 1 mM EDTA. Purified PBMCs were re-suspended in assay medium (RPMI-1640 w Glutamax (Invitrogen) supplemented with 5% HI—FBS, 10 mM HEPES, 50 uM β-mercaptoethanol, and 100 mG/L penicillin/streptomycin cocktail). Viable PBMCs were counted on a hemacytometer and kept on ice until ready for plating.
(§3) A 4× concentration (4 ug/ml or 40 ug/ml for TLR8 or TLR7 assays, respectively) of the TLR7/8 agonist ssRNA40 (IDT) was complexed with 10% DOTAP (Roche) in assay medium for 30 min prior to addition to the PBMC suspension (5 million cells/ml). After addition, the final concentration of ssRNA40 in the TLR7/8 stimulated PBMC suspension was 1 μg/ml for TLR8 assay, and 10 μg/mL for the TLR7 assay. The final DOTAP concentration was 2.5%. Diluted PBMCs (5 million cells/ml) were treated with 4×TLR9 agonist ODN2216 (Invivogen). Final concentration of ODN2216 in TLR9 stimulated PBMC suspension was 0.3 μM.
(§4) Agonist stimulated PBMCs were plated on the compound treated 384 well plates at 150,000 cells/well. Un-stimulated PBMCs were plated as controls on each plate. Plating volume was 40 μL per well. DMSO concentration in each well was 0.25%.
(§5) A separate plate, without compounds, with titrations of ssRNA40 and ODN2216 was included in every assay to measure agonist response of each donor's PBMC prep. Assay plates were placed in a tissue culture incubator (37° C., 5% CO2) for 14-16 hrs. After this incubation, the plates were centrifuged and stored at −20° C. until they were assayed.
(§6) IL-6 TR-FRET Assay for TLR8 activity: • 1) Cisbio Human IL-6 kit, 20,000 tests (62TNFPEC), and GNF High-Base TC 384 well plates (cat #789163G) were used; • 2) the Anti-TIL-6 Cryptate conjugate and the Anti-IL-6 XL665 conjugate were diluted 1:20 in Reconstitution Buffer; • 3) a 1:1 mixture of 3 μl/well Anti-IL-6 Cryptate conjugate and 3 μl/well Anti-IL-6 XL665 conjugate was prepared; • 4) 6 μl/well HTRF dilution mastermix was added to 6 μl of transferred supernatant samples in proxiplates; • 5) The plates were incubated for 3 hrs at rt in the dark; and • 6) the levels of IL-6 production was measured using an Envision plate reader (665 nm (emmission)/590 nm (excitation)) with HTRF settings and ratiometric read-out: (XL665 emission/Eu Cryptate emission)×10,000. IFNα2b AlphaLISA Assay for TLR7 or TLR9 activity After thawing the assay plates, 6 μL of supernatant samples were transferred to a low-volume AlphaPlate 384SW (Perkin-Elmer). The concentration of IFNα in supernatants was measured using the IFNα2b AlphaLISA Assay (Perkin-Elmer: AL297F). 3 μL of IFNα acceptor beads/biotinylated antibody solution was added first, using laboratory automation. After an hour incubation, […] of streptavidin […] bead solution was added. The plates containing this mixture were incubated in the dark for an hour and read on an appropriate plate reader at reading parameters set by the manufacturer. (Envision, EnSpire: Perkin-Elmer).

The target of another experiment is T2, TLR9 (Homo sapiens, UniProt Q9NR96).
T2 construct: Fresh blood was collected from normal human donors; endogenous in cells; host or cells: human PBMCs from fresh donor blood
T2 sequence (Q9NR96 26-1032): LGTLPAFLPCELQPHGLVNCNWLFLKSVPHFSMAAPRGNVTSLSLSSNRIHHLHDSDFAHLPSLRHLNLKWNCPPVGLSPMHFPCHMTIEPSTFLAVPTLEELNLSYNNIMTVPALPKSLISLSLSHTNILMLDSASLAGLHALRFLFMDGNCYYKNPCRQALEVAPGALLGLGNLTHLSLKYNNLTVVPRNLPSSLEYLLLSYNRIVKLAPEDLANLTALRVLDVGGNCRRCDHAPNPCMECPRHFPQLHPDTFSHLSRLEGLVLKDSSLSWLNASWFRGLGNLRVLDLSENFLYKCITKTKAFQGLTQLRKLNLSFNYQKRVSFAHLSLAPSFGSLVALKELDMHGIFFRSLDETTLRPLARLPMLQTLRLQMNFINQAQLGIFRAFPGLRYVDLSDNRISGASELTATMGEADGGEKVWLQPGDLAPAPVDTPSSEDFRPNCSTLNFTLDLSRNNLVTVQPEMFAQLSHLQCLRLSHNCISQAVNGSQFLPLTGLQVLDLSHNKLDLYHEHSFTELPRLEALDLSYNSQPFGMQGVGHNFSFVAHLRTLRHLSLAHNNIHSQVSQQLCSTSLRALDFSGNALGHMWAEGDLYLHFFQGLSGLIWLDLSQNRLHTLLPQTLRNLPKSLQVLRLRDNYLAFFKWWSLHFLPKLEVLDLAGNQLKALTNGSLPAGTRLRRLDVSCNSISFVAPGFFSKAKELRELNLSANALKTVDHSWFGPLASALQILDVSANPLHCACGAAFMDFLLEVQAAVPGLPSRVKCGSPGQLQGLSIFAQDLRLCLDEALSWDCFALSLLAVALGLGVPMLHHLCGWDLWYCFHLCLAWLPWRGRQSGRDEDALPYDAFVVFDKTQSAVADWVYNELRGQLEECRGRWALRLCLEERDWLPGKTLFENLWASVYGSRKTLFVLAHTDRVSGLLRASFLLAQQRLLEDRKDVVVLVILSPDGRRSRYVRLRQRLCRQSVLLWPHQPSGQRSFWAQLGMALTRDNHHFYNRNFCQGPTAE
In words: huPBMC TLR9 Antagonist IFNα Assay. The settings on record: human PBMCs stimulated with ODN2216 0.3 μM, 14-16 hrs; IFNα2b AlphaLISA read-out. As to the method:
as §1, §2, §3, §4, §5, §6

The target in the next experiment is T3, TLR8 (Homo sapiens, UniProt Q9NR97).
T3 sequence (Q9NR97 27-1041): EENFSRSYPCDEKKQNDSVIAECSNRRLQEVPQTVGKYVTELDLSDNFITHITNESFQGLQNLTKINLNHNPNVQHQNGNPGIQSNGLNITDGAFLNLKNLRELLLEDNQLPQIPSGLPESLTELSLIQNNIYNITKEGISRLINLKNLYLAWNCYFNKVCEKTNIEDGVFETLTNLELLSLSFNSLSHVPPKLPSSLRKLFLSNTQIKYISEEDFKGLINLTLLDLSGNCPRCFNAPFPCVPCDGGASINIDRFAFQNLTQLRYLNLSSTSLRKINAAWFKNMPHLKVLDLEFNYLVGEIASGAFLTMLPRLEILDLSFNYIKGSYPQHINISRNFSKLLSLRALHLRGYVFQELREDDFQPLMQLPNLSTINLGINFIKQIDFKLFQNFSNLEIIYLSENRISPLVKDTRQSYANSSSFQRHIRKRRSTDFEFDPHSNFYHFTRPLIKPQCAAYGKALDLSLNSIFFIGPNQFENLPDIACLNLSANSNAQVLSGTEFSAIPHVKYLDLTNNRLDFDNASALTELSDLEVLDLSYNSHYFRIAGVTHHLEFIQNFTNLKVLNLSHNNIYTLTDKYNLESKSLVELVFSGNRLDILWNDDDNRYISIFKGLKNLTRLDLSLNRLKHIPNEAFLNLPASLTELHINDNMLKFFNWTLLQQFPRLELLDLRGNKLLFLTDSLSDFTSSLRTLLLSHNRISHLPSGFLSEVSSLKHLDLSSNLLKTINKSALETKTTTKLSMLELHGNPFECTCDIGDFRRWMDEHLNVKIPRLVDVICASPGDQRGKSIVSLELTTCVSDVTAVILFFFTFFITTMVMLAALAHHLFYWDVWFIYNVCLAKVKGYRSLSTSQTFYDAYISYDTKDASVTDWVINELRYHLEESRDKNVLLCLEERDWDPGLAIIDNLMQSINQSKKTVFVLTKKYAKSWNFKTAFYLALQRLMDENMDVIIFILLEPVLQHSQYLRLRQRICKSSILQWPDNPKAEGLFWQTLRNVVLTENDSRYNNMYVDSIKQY
Nature of the experiment: huPBMC TLR8 Antagonist IL-6 TR-FRET Assay. Also on record: Fresh blood was collected from normal human donors; endogenous in cells; host or cells: human PBMCs from fresh donor blood. The note with it: human PBMCs stimulated with ssRNA40 1 μg/ml (DOTAP), 14-16 hrs; IL-6 TR-FRET read-out. An outline of the steps: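 Human PBMCs from fresh donor blood (150,000 cells/well) stimulated 14–16 h at 37 °C with DOTAP-complexed ssRNA40 (final 1 μg/ml for TLR8, 10 μg/mL for TLR7) or ODN2216 (final 0.3 μM, TLR9), 0.25% DMSO, ten-point 1/3 compound dilutions. Supernatant IL-6 read by HTRF (TLR8); IFNα by IFNα2b AlphaLISA (TLR7/TLR9).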

Our source for the IC50 values is patent publication US20240376099A1, “COMPOUNDS AND COMPOSITIONS AS INHIBITORS OF ENDOSOMAL TOLL-LIKE RECEPTORS” (Novartis AG, priority 2016, published 2024).

By IC50 is commonly meant the midpoint of a concentration-inhibition curve.

For the compound `CC(=O)NC12CCC(Cn3nc(C)c4c3CCN(c3cc(C)nc5c3cnn5C)C4)(CC1)CC2` [compound 47, N-(4-((5-(1,6-dimethyl-1H-pyrazolo[3,4-b]pyridin-4-yl)-3-methyl-4,5,6,7-tetrahydro-1H-pyrazolo[4,3-c]pyridin-1-yl)methyl)bicyclo[2.2.2]octan-1-yl)acetamide], the IC50 at TLR7 was 4 nM; at TLR9 it was greater than 10000 nM.

With `CC(=O)N(C)CC(=O)NC12CCC(Cn3nc(C)c4c3CCN(c3cc(C)nc5c3cnn5C)C4)(CC1)CC2` [compound 139, N-(4-((5-(1,6-dimethyl-1H-pyrazolo[3,4-b]pyridin-4-yl)-3-methyl-4,5,6,7-tetrahydro-1H-pyrazolo[4,3-c]pyridin-1-yl)methyl)bicyclo[2.2.2]octan-1-yl)-2-(N-methylacetamido)acetamide], the IC50 on TLR7 was 67 nM; on TLR8, 3540 nM.

In the case of `CCn1ncc2c(N3CCc4c(c(C)nn4CC45CCC(NC(=O)OC(C)(C)C)(CC4)CC5)C3)cc(C)nc21` [compound 145, tert-butyl (4-((5-(1-ethyl-6-methyl-1H-pyrazolo[3,4-b]pyridin-4-yl)-3-methyl-4,5,6,7-tetrahydro-1H-pyrazolo[4,3-c]pyridin-1-yl)methyl)bicyclo[2.2.2]octan-1-yl)carbamate], the IC50 was 61 nM at TLR7 and greater than 10000 nM at TLR8.
